{"source": "ChEMBL document CHEMBL1201862", "about": "“PubChem BioAssay data set” (2004)", "key": {"Streptococcus": {"test_system": "Streptococcus", "experiment": "Group A Streptococcus viability loss, dose response, counter-screen for streptokinase expression inhibitor project, luminescence, BacTiterGlo (AID 1915);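 further: potency for reduction of bacterial viability or growth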", "format": "functional, organism-based"}, "[1]": {"target": "G-protein coupled receptor 35 (Homo sapiens, UniProt Q9HC97)", "sequence (Q9HC97 whole entry)": "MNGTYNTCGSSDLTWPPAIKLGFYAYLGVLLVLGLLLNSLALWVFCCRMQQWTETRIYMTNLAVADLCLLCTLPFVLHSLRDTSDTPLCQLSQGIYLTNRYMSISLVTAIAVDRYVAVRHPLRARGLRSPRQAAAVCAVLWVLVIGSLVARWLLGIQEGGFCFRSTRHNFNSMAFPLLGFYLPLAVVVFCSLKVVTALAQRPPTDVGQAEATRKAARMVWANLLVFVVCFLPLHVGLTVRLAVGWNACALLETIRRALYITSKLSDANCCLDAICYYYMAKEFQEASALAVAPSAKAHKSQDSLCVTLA", "experiment": "GPR35 antagonists blocking zaprinast-driven arrestin recruitment, primary screen, imaging, U2OS, beta-arrestin-GFP, zaprinast agonist (AID 2058);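 further: antagonist potency meaning inhibition of agonist-induced arrestin redistribution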", "format": "functional"}, "Streptokinase A": {"target": "T1, Streptokinase A (Streptococcus pyogenes serotype M1, UniProt P10520)", "T1 sequence (P10520 whole entry)": "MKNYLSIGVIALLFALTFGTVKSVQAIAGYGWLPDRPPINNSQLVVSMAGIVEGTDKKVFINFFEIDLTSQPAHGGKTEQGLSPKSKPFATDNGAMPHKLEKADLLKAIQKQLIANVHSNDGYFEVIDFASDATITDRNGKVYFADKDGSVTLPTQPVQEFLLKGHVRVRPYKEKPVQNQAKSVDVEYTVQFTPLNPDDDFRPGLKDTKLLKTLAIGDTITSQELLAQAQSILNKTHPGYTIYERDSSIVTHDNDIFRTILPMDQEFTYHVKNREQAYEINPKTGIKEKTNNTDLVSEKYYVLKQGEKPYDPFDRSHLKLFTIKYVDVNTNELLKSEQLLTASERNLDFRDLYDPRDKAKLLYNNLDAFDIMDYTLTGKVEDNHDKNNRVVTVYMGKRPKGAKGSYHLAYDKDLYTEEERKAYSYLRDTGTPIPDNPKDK", "experiment": "S. pyogenes streptokinase expression inhibitors, potency, dose response, plasminogen activation absorbance, OD405 (AID 1914);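 further: secreted streptokinase activity via plasminogen activation per viability signal from cell pellet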", "format": "functional, Streptococcus pyogenes M1 GAS"}, "[2]": {"test_system": "Streptococcus sp. 'group A'", "experiment": "growth inhibition of control SK(-) GAS strain, dose response, counter-screen for streptokinase expression inhibitor project, luminescence, kanamycin, BacTiterGlo, confirmation (AID 1900)", "format": "functional, organism-based"}, "[3]": {"target": "Neurotensin receptor type 1 (Homo sapiens, UniProt P30989)", "sequence (P30989 whole entry)": "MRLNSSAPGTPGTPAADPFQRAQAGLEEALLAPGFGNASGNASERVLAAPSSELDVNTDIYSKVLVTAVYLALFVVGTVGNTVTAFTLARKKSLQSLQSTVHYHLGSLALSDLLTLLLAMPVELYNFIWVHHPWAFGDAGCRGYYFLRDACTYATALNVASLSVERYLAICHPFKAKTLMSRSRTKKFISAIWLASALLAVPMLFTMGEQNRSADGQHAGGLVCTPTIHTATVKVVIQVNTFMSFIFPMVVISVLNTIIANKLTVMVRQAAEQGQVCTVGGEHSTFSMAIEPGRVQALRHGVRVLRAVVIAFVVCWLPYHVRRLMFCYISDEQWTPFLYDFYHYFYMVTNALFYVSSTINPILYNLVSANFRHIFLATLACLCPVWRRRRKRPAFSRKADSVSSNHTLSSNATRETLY", "format": "functional"}, "Hexokinase HKDC1": {"target": "Hexokinase HKDC1 (Homo sapiens, UniProt Q2TB90)", "sequence (Q2TB90 whole entry)": "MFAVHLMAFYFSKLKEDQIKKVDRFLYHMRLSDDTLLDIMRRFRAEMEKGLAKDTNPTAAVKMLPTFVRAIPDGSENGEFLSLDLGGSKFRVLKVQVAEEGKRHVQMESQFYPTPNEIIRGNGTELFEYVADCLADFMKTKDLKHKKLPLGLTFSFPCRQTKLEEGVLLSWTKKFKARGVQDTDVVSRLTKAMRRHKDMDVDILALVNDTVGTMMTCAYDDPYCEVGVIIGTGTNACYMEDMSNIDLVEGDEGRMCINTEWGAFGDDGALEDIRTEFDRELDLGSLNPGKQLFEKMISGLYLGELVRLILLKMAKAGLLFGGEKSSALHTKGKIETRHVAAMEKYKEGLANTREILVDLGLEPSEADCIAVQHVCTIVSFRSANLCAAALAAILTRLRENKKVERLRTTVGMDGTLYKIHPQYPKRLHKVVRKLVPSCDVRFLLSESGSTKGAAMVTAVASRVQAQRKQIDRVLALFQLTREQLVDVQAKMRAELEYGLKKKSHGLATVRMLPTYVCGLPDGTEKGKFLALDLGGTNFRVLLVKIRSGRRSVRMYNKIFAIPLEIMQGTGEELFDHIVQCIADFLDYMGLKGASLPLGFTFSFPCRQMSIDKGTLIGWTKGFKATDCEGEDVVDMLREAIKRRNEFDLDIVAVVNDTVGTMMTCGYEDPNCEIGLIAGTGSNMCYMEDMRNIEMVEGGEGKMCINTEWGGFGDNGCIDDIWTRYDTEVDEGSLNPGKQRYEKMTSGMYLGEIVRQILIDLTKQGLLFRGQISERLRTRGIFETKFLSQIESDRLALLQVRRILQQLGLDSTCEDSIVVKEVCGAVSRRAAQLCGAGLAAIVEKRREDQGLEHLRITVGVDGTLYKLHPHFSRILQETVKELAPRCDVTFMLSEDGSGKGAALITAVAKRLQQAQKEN", "experiment": "HKDC1 hexokinase inhibitors, dose response, biochemical, W721R variant (AID 504729)", "format": "functional"}, "[4]": {"target": "T2, Replicative DNA helicase DnaB (Mycobacterium tuberculosis, UniProt P9WMR3)", "T2 sequence (P9WMR3 whole entry)": "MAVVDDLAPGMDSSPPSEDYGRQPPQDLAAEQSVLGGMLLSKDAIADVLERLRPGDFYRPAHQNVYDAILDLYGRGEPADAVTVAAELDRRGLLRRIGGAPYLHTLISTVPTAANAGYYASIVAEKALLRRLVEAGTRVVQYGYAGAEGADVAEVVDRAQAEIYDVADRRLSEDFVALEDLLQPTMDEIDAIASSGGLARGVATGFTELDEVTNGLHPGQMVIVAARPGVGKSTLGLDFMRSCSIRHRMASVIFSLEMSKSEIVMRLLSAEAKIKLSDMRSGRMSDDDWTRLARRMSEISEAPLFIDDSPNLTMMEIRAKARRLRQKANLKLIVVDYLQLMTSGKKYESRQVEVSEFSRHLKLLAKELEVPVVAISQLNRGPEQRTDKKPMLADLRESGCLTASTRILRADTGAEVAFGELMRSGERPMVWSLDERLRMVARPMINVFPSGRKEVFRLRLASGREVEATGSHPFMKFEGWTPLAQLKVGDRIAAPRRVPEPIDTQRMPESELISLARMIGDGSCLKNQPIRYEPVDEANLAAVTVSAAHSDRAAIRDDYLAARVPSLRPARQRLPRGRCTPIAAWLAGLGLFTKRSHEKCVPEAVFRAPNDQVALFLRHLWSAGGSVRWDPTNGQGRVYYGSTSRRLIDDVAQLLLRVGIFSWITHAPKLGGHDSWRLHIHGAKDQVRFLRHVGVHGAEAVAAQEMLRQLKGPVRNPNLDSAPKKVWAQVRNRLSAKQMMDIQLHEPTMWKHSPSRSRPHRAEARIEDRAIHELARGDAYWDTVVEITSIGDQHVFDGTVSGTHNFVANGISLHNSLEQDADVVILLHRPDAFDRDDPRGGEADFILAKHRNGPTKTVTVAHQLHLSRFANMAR", "experiment": "DnaB intein splicing inhibitors, dose response, biochemical, cell-free fluorescence (AID 449749)", "format": "functional"}, "Protein RecA": {"target": "T3, Protein RecA (Mycobacterium tuberculosis, UniProt P9WHJ3)", "T3 sequence (P9WHJ3 whole entry)": "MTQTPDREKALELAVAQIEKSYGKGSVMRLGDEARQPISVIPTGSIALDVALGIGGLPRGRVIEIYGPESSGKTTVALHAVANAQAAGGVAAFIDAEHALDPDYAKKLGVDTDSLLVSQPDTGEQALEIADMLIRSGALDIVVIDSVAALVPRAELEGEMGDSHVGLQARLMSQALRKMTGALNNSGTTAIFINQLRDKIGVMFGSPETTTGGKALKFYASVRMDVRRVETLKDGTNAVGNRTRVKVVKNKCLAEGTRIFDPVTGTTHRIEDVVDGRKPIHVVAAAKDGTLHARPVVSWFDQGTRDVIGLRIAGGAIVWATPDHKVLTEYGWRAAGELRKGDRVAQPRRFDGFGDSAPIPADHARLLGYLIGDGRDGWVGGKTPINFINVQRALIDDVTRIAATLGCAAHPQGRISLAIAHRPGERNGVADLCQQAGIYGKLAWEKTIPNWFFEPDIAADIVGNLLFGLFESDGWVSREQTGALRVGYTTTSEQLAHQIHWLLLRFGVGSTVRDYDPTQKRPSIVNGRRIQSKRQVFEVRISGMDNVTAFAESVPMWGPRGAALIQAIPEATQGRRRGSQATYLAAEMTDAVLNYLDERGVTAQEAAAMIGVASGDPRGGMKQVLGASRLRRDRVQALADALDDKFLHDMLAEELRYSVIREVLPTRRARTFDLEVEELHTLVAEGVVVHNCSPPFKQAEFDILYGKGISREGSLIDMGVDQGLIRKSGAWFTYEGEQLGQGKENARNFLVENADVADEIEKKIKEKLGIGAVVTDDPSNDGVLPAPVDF", "experiment": "Fluorescence Cell-Free Homogeneous Dose Retest to Identify Inhibitors of RecA-Intein Splicing Activity. [Related pubchem assays (depositor defined):AID2097, AID2223, AID489010, AID492950]", "format": "functional"}, "[5]": {"target": "Dual specificity protein phosphatase 3 (Homo sapiens, UniProt P51452)", "sequence (P51452 whole entry)": "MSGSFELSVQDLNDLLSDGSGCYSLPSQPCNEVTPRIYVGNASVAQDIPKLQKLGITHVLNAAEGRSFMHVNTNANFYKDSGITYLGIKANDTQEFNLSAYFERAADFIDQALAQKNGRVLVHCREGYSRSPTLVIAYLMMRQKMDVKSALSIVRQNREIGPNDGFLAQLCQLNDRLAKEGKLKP", "experiment": "VHR1 inhibitor Ki determination, SAR follow-up, biochemical, colorimetric (AID 2004)"}, "[6]": {"target": "SWI/SNF-related matrix-associated actin-dependent regulator of chromatin subfamily A member 2 (Homo sapiens, UniProt P51531)", "sequence (P51531 whole entry)": "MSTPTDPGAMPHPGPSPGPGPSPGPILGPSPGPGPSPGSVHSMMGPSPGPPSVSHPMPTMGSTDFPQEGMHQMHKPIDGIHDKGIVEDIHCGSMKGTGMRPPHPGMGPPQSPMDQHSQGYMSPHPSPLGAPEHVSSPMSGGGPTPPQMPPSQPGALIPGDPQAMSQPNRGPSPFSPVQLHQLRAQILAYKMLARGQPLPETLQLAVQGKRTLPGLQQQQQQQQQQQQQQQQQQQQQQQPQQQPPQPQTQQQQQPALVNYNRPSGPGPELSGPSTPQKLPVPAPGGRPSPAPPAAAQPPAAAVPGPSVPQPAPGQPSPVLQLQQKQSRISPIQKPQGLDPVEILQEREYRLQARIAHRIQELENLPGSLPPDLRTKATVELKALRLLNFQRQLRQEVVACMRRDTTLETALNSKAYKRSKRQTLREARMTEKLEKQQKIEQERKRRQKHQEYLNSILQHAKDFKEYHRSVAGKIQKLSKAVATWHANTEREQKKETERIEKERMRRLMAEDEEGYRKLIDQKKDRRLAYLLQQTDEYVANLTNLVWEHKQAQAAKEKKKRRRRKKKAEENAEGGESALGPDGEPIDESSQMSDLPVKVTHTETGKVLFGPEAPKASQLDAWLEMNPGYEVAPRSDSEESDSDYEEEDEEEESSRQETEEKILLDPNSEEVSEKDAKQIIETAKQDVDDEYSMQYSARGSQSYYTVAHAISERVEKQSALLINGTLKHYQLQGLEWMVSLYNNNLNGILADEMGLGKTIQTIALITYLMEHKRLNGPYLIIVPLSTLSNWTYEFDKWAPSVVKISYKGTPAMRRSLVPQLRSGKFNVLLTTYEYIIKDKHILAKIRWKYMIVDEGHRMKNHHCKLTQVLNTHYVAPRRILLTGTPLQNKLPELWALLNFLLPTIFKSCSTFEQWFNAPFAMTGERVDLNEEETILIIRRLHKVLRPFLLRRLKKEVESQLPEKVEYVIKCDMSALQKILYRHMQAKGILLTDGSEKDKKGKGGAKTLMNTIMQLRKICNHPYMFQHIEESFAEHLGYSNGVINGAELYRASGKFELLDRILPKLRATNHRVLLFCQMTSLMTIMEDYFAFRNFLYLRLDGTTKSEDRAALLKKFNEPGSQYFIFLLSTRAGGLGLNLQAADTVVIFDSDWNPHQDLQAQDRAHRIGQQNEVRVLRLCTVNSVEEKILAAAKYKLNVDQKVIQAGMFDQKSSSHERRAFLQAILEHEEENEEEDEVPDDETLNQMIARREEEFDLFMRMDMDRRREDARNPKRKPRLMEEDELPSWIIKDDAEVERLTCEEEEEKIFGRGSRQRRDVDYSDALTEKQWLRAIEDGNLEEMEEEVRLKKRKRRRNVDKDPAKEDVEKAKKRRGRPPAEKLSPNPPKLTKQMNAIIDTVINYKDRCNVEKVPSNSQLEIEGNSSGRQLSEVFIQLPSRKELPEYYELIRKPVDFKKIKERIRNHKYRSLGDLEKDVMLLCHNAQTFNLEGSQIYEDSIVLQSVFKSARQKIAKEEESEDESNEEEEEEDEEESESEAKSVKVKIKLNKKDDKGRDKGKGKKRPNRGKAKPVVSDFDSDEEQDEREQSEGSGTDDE", "experiment": "Luminescence-based cell-based high throughput dose response assay to identify activators of the function of SWI/SNF related, matrix associated, actin dependent regulator of chromatin, subfamily a, member 2 (SMARCA2, BRM).", "format": "functional"}, "[7]": {"target": "Cyclin-dependent kinase 5/CDK5 activator 1 (Homo sapiens, UniProt Q00535)", "sequence (Q00535 whole entry)": "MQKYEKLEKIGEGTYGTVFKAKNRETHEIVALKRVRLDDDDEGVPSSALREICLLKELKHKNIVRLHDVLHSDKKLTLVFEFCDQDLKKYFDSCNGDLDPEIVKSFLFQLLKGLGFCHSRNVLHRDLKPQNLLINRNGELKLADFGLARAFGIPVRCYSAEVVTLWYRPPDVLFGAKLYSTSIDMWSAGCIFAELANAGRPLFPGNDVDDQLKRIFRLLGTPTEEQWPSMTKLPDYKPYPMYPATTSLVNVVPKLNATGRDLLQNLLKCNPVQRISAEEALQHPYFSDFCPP", "sequence (Q15078 whole entry, further chain)": "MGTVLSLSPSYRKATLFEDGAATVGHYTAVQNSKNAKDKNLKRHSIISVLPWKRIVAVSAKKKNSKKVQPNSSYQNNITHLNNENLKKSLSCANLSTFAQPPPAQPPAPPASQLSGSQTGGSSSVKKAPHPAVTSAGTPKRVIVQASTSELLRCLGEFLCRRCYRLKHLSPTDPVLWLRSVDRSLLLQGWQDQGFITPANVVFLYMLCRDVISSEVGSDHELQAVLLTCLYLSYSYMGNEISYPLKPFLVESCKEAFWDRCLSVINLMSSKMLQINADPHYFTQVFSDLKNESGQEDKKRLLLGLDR", "experiment": "CDK5/p35 kinase inhibitors, dose response, biochemical, cherry-picked samples, set 2 (AID 504545)"}, "[8]": {"experiment": "Counterscreen for activators of the function of SWI/SNF related, matrix associated, actin dependent regulator of chromatin, subfamily a, member 2 (SMARCA2, BRM): Luminescence-based cell-based high throughput dose response assay to identify non-selective compounds using the VP16 reporter assay.", "format": "functional"}, "Protein Rev": {"target": "Protein Rev (Human immunodeficiency virus type 1 group M subtype B (isolate HXB2)(HIV-1), UniProt P04618)", "sequence (P04618 whole entry)": "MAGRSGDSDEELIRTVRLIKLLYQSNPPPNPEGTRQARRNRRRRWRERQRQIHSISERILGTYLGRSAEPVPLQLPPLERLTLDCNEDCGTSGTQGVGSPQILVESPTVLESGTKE", "experiment": "inhibitors of Rev binding to RRE RNA, dose response, biochemical, fluorescence polarization, HIV-1 (AID 434976)", "parameters": "species or system Human immunodeficiency virus 1"}, "[9]": {"target": "Female germline-specific tumor suppressor gld-1 (Caenorhabditis elegans, UniProt Q17339)", "sequence (Q17339 whole entry)": "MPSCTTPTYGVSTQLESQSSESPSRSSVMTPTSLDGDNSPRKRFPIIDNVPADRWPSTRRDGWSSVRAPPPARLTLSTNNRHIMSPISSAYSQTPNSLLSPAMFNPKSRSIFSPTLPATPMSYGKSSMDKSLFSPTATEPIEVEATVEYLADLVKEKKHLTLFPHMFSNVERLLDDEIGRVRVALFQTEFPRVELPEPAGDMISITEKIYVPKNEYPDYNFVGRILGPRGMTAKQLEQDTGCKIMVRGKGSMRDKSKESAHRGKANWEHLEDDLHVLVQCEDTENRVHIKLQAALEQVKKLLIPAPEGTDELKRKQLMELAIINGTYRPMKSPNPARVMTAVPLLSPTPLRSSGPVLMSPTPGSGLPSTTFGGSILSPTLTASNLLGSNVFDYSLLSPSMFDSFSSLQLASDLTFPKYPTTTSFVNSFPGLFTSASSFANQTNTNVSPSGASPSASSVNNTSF", "experiment": "inhibitors of GLD-1 binding to TGE RNA, dose response, biochemical, fluorescence polarization, C. elegans (AID 2802);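 further: fluorescence polarization of labeled TGE RNA bound by purified gld-1 protein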"}}, "note": "Activity calls are given as the source filed them.", "data": [{"smiles": "CCOc1ccc(N(C)c2ccc(/C=C3/SC(=S)NC3=O)cc2)cc1", "values": [{"measurement": "EC50", "setting": "Streptococcus", "value": "20.7 µM (active)"}, {"measurement": "IC50", "setting": "[1]", "value": "0.701 µM (active)"}, {"measurement": "EC50", "setting": "Streptokinase A", "value": "> 150 µM (not active)"}, {"measurement": "EC50", "setting": "[2]", "value": "5.43 µM (active)"}]}, {"smiles": "Cc1cc(C)n(-c2nc(N(c3ccccc3)c3ccccc3)nc(-n3nc(C)cc3C)n2)n1", "values": [{"measurement": "EC50", "setting": "[3]", "value": "6.21 µM (active)"}]}, {"smiles": "O=c1c2ccccc2nc(/C=C/c2cccnc2)n1CCc1ccccc1", "values": [{"measurement": "IC50", "setting": "Hexokinase HKDC1", "value": "17.5 µM (active)"}, {"measurement": "AC50", "setting": "[4]", "value": "60.6 µM (active)"}, {"measurement": "EC50", "setting": "Protein RecA", "value": "12 µM (active)"}]}, {"smiles": "COC(=O)c1ccc(COc2cc3oc(=O)cc(-c4ccccc4)c3cc2Cl)cc1", "values": [{"measurement": "Ki", "setting": "[5]", "value": "28.9 µM (inactive)"}]}, {"smiles": "CC(C)[C@H](CO)Nc1nc(NCc2ccc(S(N)(=O)=O)cc2)c2ncn(C(C)C)c2n1", "values": [{"measurement": "EC50", "setting": "[6]", "value": "> 91.2 µM (inactive)"}, {"measurement": "AC50", "setting": "[7]", "value": "1.93 µM (active)"}, {"measurement": "EC50", "setting": "[8]", "value": "> 91.2 µM (inactive)"}]}, {"smiles": "Cc1ccc(S(=O)(=O)Nc2cc3c(C(=O)Nc4ccccc4)c(C)oc3c3ccccc23)cc1", "values": [{"measurement": "IC50", "setting": "Protein Rev", "value": "> 75.4 µM (not active)"}, {"measurement": "IC50", "setting": "[9]", "value": "0.725 µM (active)"}]}]}
